# Results reported in patent publication US8124793B2, “Derivatives of ethylene methanedisulfonate as cancer chemotherapeutic agents” (priority 2007, dated 2012).
# Tests used:
# Assay type in all cases: cell-based
# HL-60 (TB) = assay: NCI screen, growth of human tumor cells: Leukemia HL-60 (TB); settings: HL-60 (TB) (Leukemia), 10^−4 molar
# Description: (§1) In the NCI screening process, each compound was tested and described by a minimum of 60 data points. The test data include, but are not limited to the type of cancer, the molar concentration used in the screen, and the percent growth of the cancer. In some cases, NMR and elemental analysis were used for structural assignment.
# K562 = assay: NCI screen, growth of human tumor cells: Leukemia K562; settings: K562 (Leukemia), 10^−4 molar
# Outline: (§2)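 The NCI screen tests each compound on human cancer cell lines and reports percent growth. Concentrations are given in molar units; the number of data points per compound is sixty at minimum.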
# MOLT-4 = assay: NCI screen, growth of human tumor cells: Leukemia MOLT-4; settings: MOLT-4 (Leukemia), 10^−4 molar
# Outline: as §2
# RPMI-8226 = assay: NCI screen, growth of human tumor cells: Leukemia RPMI-8226; settings: RPMI-8226 (Leukemia), 10^−4 molar
# Outline: as §2
# SR = assay: NCI screen, growth of human tumor cells: Leukemia SR; settings: SR
# Outline: as §2
# EKVX = assay: NCI screen, growth of human tumor cells: Non-Small Cell Lung EKVX; settings: EKVX (Non-Small Cell Lung), 10^−4 molar
# Outline: as §2
# HOP-62 = assay: NCI screen, growth of human tumor cells: Non-Small Cell Lung HOP-62
# Outline: as §2
# HOP-18 = assay: NCI screen, growth of human tumor cells: Non-Small Cell Lung HOP-18; settings: HOP-18 (Non-Small Cell Lung), 10^−4 molar
# Description: as §1
# HOP-92 = assay: NCI screen, growth of human tumor cells: Non-Small Cell Lung HOP-92; settings: HOP-92 (Non-Small Cell Lung), 10^−4 molar
# Outline: as §2
# NCI-H226 = assay: NCI screen, growth of human tumor cells: Non-Small Cell Lung NCI-H226; settings: NCI-H226 (Non-Small Cell Lung), 10^−4 molar
# Outline: as §2
# NCI-H460 = assay: NCI screen, growth of human tumor cells: Non-Small Cell Lung NCI-H460; settings: NCI-H460 (Non-Small Cell Lung), 10^−4 molar
# Outline: as §2
# NCI-H322M = assay: NCI screen, growth of human tumor cells: Non-Small Cell Lung NCI-H322M; settings: NCI-H322M, 10^−4 molar
# Description: as §1
# NCI-H23 = assay: NCI screen, growth of human tumor cells: Non-Small Cell Lung NCI-H23; settings: NCI-H23, 10^−4 molar
# Outline: as §2
# COLO205 = assay: NCI screen, growth of human tumor cells: Colon Cancer COLO205; settings: COLO205 (Colon Cancer), 10^−4 molar
# Outline: as §2
# HCT-116 = assay: NCI screen, growth of human tumor cells: Colon Cancer HCT-116; settings: HCT-116, 10^−4 molar
# Outline: as §2
# HT29 = assay: NCI screen, growth of human tumor cells: Colon Cancer HT29; settings: HT29 (Colon Cancer), 10^−4 molar
# Outline: as §2
# KM12 = assay: NCI screen, growth of human tumor cells: Colon Cancer KM12; settings: KM12 (Colon Cancer), 10^−4 molar
# Outline: as §2
# SF-268 = assay: NCI screen, growth of human tumor cells: CNS Cancer SF-268; settings: SF-268 (CNS Cancer), 10^−4 molar
# Outline: as §2
# SF-295 = assay: NCI screen, growth of human tumor cells: CNS Cancer SF-295
# Outline: as §2
# SNB-19 = assay: NCI screen, growth of human tumor cells: CNS Cancer SNB-19; settings: SNB-19, 10^−4 molar
# Outline: as §2
# SF-539 = assay: NCI screen, growth of human tumor cells: CNS Cancer SF-539; settings: SF-539, 10^−4 molar
# Outline: as §2
# SNB-75 = assay: NCI screen, growth of human tumor cells: CNS Cancer SNB-75; settings: SNB-75 (CNS Cancer), 10^−4 molar
# Outline: as §2
# M14 = assay: NCI screen, growth of human tumor cells: Melanoma M14; settings: M14, 10^−4 molar
# Outline: as §2
# SK-MEL-2 = assay: NCI screen, growth of human tumor cells: Melanoma SK-MEL-2; settings: SK-MEL-2 (Melanoma), 10^−4 molar
# Outline: as §2
# SK-MEL-28 = assay: NCI screen, growth of human tumor cells: Melanoma SK-MEL-28; settings: SK-MEL-28, 10^−4 molar
# Outline: as §2
# SK-MEL-5 = assay: NCI screen, growth of human tumor cells: Melanoma SK-MEL-5; settings: SK-MEL-5, 10^−4 molar
# Outline: as §2
# UACC-257 = assay: NCI screen, growth of human tumor cells: Melanoma UACC-257
# Outline: as §2
# UACC-62 = assay: NCI screen, growth of human tumor cells: Melanoma UACC-62; settings: UACC-62 (Melanoma), 10^−4 molar
# Outline: as §2
# IGROVI = assay: NCI screen, growth of human tumor cells: Ovarian Cancer IGROVI; settings: IGROVI (Ovarian Cancer), 10^−4 molar
# Outline: as §2
# SK-OV-3 = assay: NCI screen, growth of human tumor cells: Ovarian Cancer SK-OV-3; settings: SK-OV-3 (Ovarian Cancer), 10^−4 molar
# Description: as §1
# OVCAR-3 = assay: NCI screen, growth of human tumor cells: Ovarian Cancer OVCAR-3; settings: OVCAR-3 (Ovarian Cancer), 10^−4 molar
# Outline: as §2
# OVCAR-5 = assay: NCI screen, growth of human tumor cells: Ovarian Cancer OVCAR-5
# Outline: as §2
# OVCAR-8 = assay: NCI screen, growth of human tumor cells: Ovarian Cancer OVCAR-8; settings: OVCAR-8 (Ovarian Cancer), 10^−4 molar
# Description: as §1
# RXF-393 = assay: NCI screen, growth of human tumor cells: Renal Cancer RXF-393; settings: RXF-393 (Renal Cancer), 10^−4 molar
# Outline: as §2
# TK-10 = assay: NCI screen, growth of human tumor cells: Renal Cancer TK-10; settings: TK-10 (Renal Cancer), 10^−4 molar
# Description: as §1
# SN12C = assay: NCI screen, growth of human tumor cells: Renal Cancer SN12C; settings: SN12C (Renal Cancer), 10^−4 molar
# Outline: as §2
# CAKI-1 = assay: NCI screen, growth of human tumor cells: Renal Cancer CAKI-1; settings: CAKI-1 (Renal Cancer), 10^−4 molar
# Outline: as §2
# UO-31 = assay: NCI screen, growth of human tumor cells: Renal Cancer UO-31; settings: UO-31 (Renal Cancer), 10^−4 molar
# Outline: as §2
# DU-145 = assay: NCI screen, growth of human tumor cells: Prostate Cancer DU-145; settings: DV-145, 10^−4 molar
# Outline: as §2
# MCF 7 = assay: NCI screen, growth of human tumor cells: Breast Cancer MCF 7; settings: MCF 7 (Breast Cancer), 10^−4 molar
# Outline: as §2
# MCF7/ADR-RES = assay: NCI screen, growth of human tumor cells: Breast Cancer MCF7/ADR-RES; settings: MCF7/ADR-RES, 10^−4 molar
# Outline: as §2
# BT-549 = assay: NCI screen, growth of human tumor cells: Breast Cancer BT-549; settings: BT-549 (Breast Cancer), 10^−4 molar
# Outline: as §2
# HS 578T = assay: NCI screen, growth of human tumor cells: Breast Cancer HS 578T; settings: HS 578T (Breast Cancer), 10^−4 molar
# Outline: as §2
# MDA-MB-435 = assay: NCI screen, growth of human tumor cells: Breast Cancer MDA-MB-435
# Outline: as §2
# human cancer cells = assay: NCI screen summary over the cancers tested (negative growth of human cancer cells); settings: cancers with negative growth / cancers tested
# Description: as §1
# The derivatives in the tables are grouped using the same category as in the tables 1-6.
# KD488 = assay: NCI screen, growth of human tumor cells: Lymphoma KD488
# SU-DAL-7 = assay: NCI screen, growth of human tumor cells: Lymphoma SU-DAL-7; settings: SU-DAL-7, 10^−4 molar
smiles,measurement,setting,value
CC=CC(=O)C1(CC2=C(C)C(=O)c3ccccc3C2=O)S(=O)(=O)OCCOS1(=O)=O [NSC 731265],percent of growth of human tumor cells,HL-60 (TB),2%
same,percent of growth of human tumor cells,K562,11%
same,percent of growth of human tumor cells,MOLT-4,2%
same,percent of growth of human tumor cells,RPMI-8226,−40%
same,% Growth,SR; 10^−4 molar,12%
same,% Growth,SR; 10^−5 molar,15%
same,% Growth,SR; 10^−6 molar,57%
same,percent of growth of human tumor cells,EKVX,−57%
same,% Growth,"HOP-62; HOP-62, 10^−4 molar",−80%
same,% Growth,"HOP-62; HOP-62, 10^−5 molar",49%
same,percent of growth of human tumor cells,HOP-18,−43%
same,percent of growth of human tumor cells,HOP-92,−43%
same,percent of growth of human tumor cells,NCI-H226,−4%
same,percent of growth of human tumor cells,NCI-H460,5%
same,% Growth,NCI-H322M,−80%
same,% Growth,NCI-H23,−74%
same,percent of growth of human tumor cells,COLO205,−50%
same,% Growth,HCT-116,−100%
same,percent of growth of human tumor cells,HT29,−6%
same,percent of growth of human tumor cells,KM12,−16%
same,percent of growth of human tumor cells,SF-268,−49%
same,percent of growth of human tumor cells,"SF-295; SF-295 (CNS Cancer), 10^−4 molar",−57%
same,% Growth,SNB-19,−87%
same,% Growth,SF-539,−79%
same,percent of growth of human tumor cells,SNB-75,−26%
same,% Growth,M14,−86%
same,percent of growth of human tumor cells,SK-MEL-2,15%
same,% Growth,SK-MEL-28,−69%
same,% Growth,SK-MEL-5,−67%
same,% Growth,"UACC-257; UACC-257, 10^−4 molar",−87%
same,% Growth,"UACC-257; UACC-257, 10^−5 molar",40%
same,percent of growth of human tumor cells,UACC-62,−13%
same,percent of growth of human tumor cells,IGROVI,4%
same,percent of growth of human tumor cells,SK-OV-3,−61%
same,percent of growth of human tumor cells,OVCAR-3,7%
same,% Growth,"OVCAR-5; OVCAR-5, 10^−4 molar",−83%
same,% Growth,"OVCAR-5; OVCAR-5, 10^−5 molar",43%
same,% Growth,"OVCAR-5; OVCAR-5, 10^−6 molar",34%
same,% Growth,"OVCAR-5; OVCAR-5, 10^−7 molar",40%
same,% Growth,"OVCAR-5; OVCAR-5, 10^−8 molar",63%
same,percent of growth of human tumor cells,OVCAR-8,−38%
same,percent of growth of human tumor cells,RXF-393,−15%
same,percent of growth of human tumor cells,TK-10,−10%
same,percent of growth of human tumor cells,SN12C,−17%
same,percent of growth of human tumor cells,CAKI-1,−2%
same,percent of growth of human tumor cells,UO-31,−10%
same,% Growth,DU-145,−78%
same,percent of growth of human tumor cells,MCF 7,−8%
same,% Growth,MCF7/ADR-RES,−53%
same,percent of growth of human tumor cells,BT-549,−54%
same,percent of growth of human tumor cells,HS 578T,−18%
same,% Growth,"MDA-MB-435; MDA-MB-435, 10^−4 molar",−71%
same,% Growth,"MDA-MB-435; MDA-MB-435, 10^−5 molar",−66%
same,Percentage of cancers showing negative growth cancers tested,human cancer cells; 10^−4 M conc.,79%
same,Percentage of cancers showing negative growth cancers tested,human cancer cells; 10^−5 M conc.,20%
"O=C(c1cccc2ccccc12)C1S(=O)(=O)OCCOS1(=O)=O [NSC 679047, ethylene 1-naphthoylmethanedisulfonate]",% Growth,"SF-295; SF-295, 10^−4 molar",−53%
same,% Growth,"SF-295; SF-295, 10^−5 molar",−50%
same,% Growth,"SF-295; SF-295, 10^−6 molar",−54%
same,% Growth,"SF-295; SF-295, 10^−7 molar",−44%
same,% Growth,"SF-295; SF-295, 10^−8 molar",70%
same,Percentage of cancers showing negative growth cancers tested,human cancer cells; 10^−4 M conc.,10^−4 M conc. = 1/3 = 33%
same,% Growth,"KD488; KD488, 10^−4 molar",29%
same,% Growth,"KD488; KD488, 10^−5 molar",45%
same,% Growth,"KD488; KD488, 10^−6 molar",56%
same,% Growth,"KD488; KD488, 10^−7 molar",71%
same,% Growth,"KD488; KD488, 10^−8 molar",78%
same,% Growth,SU-DAL-7,42%
